Data as given in US6924288B2, “Enantiomerically pure opioid diarylmethylpiperzine and methods of using same” (priority 2001, dated 2005).

Key:
[1] = Respiratory depression by blood gas (pCO2) monitoring in rats; format: in vivo; details: male, Wistar Hannover, in vivo; rat, intravenous
Protocol: (§1) Analgesia was assayed in rats using the tail pinch test with simultaneous monitoring of capillary blood gases (pCO2). During this testing period respiratory depression values were also obtained. Male rats (Wistar Hannover 200-300 g) were anesthetized with 2% isoflurane (J. A. Webster, Inc., Sterling, Mass. The femoral artery was cannulated with PE50 tubing for blood sampling. The external jugular vein was also cannulated with Silastic tubing for drug injection. After surgery, anesthetic gases were removed and the rat was allowed to rest in a plastic restrainer for 60 minutes to establish baseline values of blood gases.
(§2) The compounds 1-6 were administered intravenous. Nociceptive response and respiratory values were obtained for a 1-2 hour period. The femoral artery cannulation was used to draw arterial blood into a syringe pre-wetted with heparin. Samples were then analyzed with a blood gas analyzer (Ph/Gas Analyzer Synthesis 25 Model, Instrumentation Laboratory) to assess respiratory depression effects. The volume of blood taken each time was 0.15 cc. The syringes were capped immediately and the blood gases analyzed within 5 minutes. The blood exposed to air at the tip of the syringe was expelled. The blood was mixed by gentle inversion and an aliquots of 0.10 cc was injected into the blood gas analyzer.
(§3) The gas analyzer was well maintained and operated. Calibrations (low, normal and high) were done at the beginning of every day of testing. The sample lines, co-oximeter and the blood gas electrode were cleaned regularly at the end of every day of testing. Hematocrit calibration (high and low) was scheduled on a weekly basis and tubing, sample and pinch valve were replaced on a monthly basis.
(§4) The ED50 values for analgesia potency and respiratory depression were determined to calculate the safety or therapeutic ratio, which is defined as the respiratory depression ED50 divided by analgesia ED50.

[2] = system: rats; test: as above; format: in vivo; details: rat; for Respiratory Depression % Units Baseline pCO2: 0.30 mg/kg i.v.
Protocol: as §1, §2, §3, §4

[3] = biological target: T1, Mu receptor, mouse vas deferens (Mus musculus, UniProt P42866); test: Mouse vas deferens, inhibition of electrically induced contractions, mu (with TIPP and nor-BNI); format: cell-based; details: in presence of 3 μM TIPP and 15 nM nor-BNI; read-out: Mouse Vas Deferens ED50 (nM) μ
T1 construct: Mouse vasa deferentia (MVD), CD-1 strain, Harlan, Raleigh, N.C.) were removed from mice; tissue Harlan, Raleigh, N.C; (animals); host or cells: mouse vas deferens, CD-1 strain

[4] = biological target: T2, κ opioid receptor (Cavia porcellus, UniProt P41144); test: Radioligand binding, [3H]U69593 competition, guinea pig cerebellum membranes; details: read-out: Guinea Pig Brain Membrane K1 (nM) κ
T2 construct: tissue Pel-Freeze Biological Inc. (Rogers, Ark.); host or cells: guinea pig cerebellum membranes
Protocol: Two stereoisomerically related racemic mixtures and inclusive enantiomers were evaluated for in vitro opioid receptor affinity in rat brain membranes (μ and δ opioid) and guinea pig cerebellum (κ opioid receptor). Membranes for radioligand binding were prepared from either rat whole brain or guinea pig cerebellum, supplied by Pel-Freeze Biological Inc. (Rogers, Ark.). Tissues were homogenized in 50 mM TRIS (Tris[hydrooxymethyl]aminomethane) buffer (pH 7.4) containing 50 ug/ml soybean trypsin inhibitor, 1 mM EDTA (Ethylenediaminetetraacetic acid), and 100 μM PMSF (Phenylmethylsulfonyl fluoride). The homogenized brain tissues were centrifuged at 500×g for 30 minutes (4° C.) to remove large debris. The supernatant was polytronically sonicated for 10 seconds (P.E. setting of 2, 4° C.). Sucrose solution was then added to a final concentration of 0.35 M using a 10 mM TRIS-Sucrose buffer (pH 7.4) and the brain membranes were then centrifuged at 40,000×g for 30 minutes (4° C.). The membrane pellets were then washed twice in 10 mM TRIS buffer (pH 7.4) containing 50 μg/ml soybean trypsin inhibitor, 1 mM EDTA, and 100 μM PMSF.
Radioligand binding assays were performed in 10 mM TRIS buffer (pH 7.4) containing 50 μg/ml soybean trypsin inhibitor, 1 mM EDTA, 5 mM MgCl2, and 100 μM PMSF. Tritium-labeled DAMGO (μ), Deltorphin II (δ), or U69593 (κ) purchased from New England Nuclear were used as ligands in competitive experiments (2-3×10^−10 M final concentrations) with non-specific binding defined by 0.5×10^−6 M Naloxone (purchased from SIGMA Chemical Co.). All binding assays were run at room temperature for 90 minutes and then terminated by rapid filtration on GF/C glass fiber filters (Whatman, Hillsboro, Oreg.) with 50 mM TRIS buffer (4° C., pH 7.4) employing a Brandel Semi-automatic Cell Harvester (Model M48, Brandel, Gaithersburg, Md.). The filters were washed twice with 50 mM TRIS buffer (4° C., pH 7.4) and the filters were placed in liquid scintillation cocktail and the bound radioactivity counted on a Beckman LS 6500 scintillation counter. The potency of the compounds in inhibiting the binding of radiolabelled DAMGO (μ), Deltorphin II (δ), or U69593 (κ) was determined from full concentration-effect curves. With the computer program Prism (GraphPad Software Inc., San Diego, Calif.) the IC50 values were determined using a one-site nonlinear regression analysis of the radioligand binding data. The IC50 values were then converted to Ki values using the Cheng-Prusoff equation. (Cheng Y and Prusoff W H (1973) Relationship between the inhibition constant (K1) and the concentration of inhibitor which causes 50 percent inhibition (I50) of a enzymatic reaction. Biochem Pharm 22:3099-3108.)

[5] = system: beagle dogs; test: Emesis observation in beagle dogs, escalating i.v. doses; format: in vivo, dog; details: i.v. slow bolus, 0.1, 0.3 and 0.5 mg/kg
Excerpt: The following describes a procedure that provided observations on the emesis effects of (−)-3-((S)-((2S,5R)-4-allyl-2,5-dimethyl-1-piperazinyl)(3-thienyl)methyl)phenol (DPI-125). Three adult male beagle dogs were separately administered (−)-3-((S)-((2S,5R)-4-allyl-2,5-dimethyl-1-piperazinyl)(3-thienyl)methyl)phenol (DPI-125) in escalating dosages. Doses were chosen to produce blood levels consistent with strong to extreme analgesia and that would produce obvious pharmacological effects including lethargy and sedation. The compound was dissolved in sterile 5% dextrose solution that was buffered with acetic acid/sodium acetate buffer and administered intravenously in a slow bolus injection over 1-2 minutes. Firstly, the three dogs were administered test volume dosages of buffered 5% dextrose to ensure there was no reaction to the vehicle. Secondly, (−)3-((S)-((2S,5R)-4-allyl-2,5-dimethyl-1-piperazinyl)(3-thienyl)methyl)phenol (DPI-125) was administered in single injections at escalating dosages of 0.1, 0.3 and 0.5 mg/kg, with an intervening seven-day period before giving the next highest dose.

Compound: C=CCN1C[C@H](C)N([C@H](c2ccsc2)c2cccc(O)c2)C[C@H]1C [Compound 2, (−)3-((S)-((2S,5R)-4-allyl-2,5-dimethyl-1-piperazinyl)(3-thienyl)methyl)phenol]
- ED50 [1]: 0.72 mg/kg
- Respiratory Depression % Units Baseline pCO2 ([2]; 4 min.): 48%
- Respiratory Depression % Units Baseline pCO2 ([2]; 8 min.): 34%
- Respiratory Depression % Units Baseline pCO2 ([2]; 32 min.): 17%
- Mortality due to respiratory depression ([2]; i.v.): without lethal respiratory depression
- Safety Ratio (respiratory depression ED50 divided by analgesia ED50) ([2]; intravenous): 15.7
- Safety ratio, times greater than any of the other enantiomeric compounds tested ([2]; intravenous): at least six times greater
- Safety ratio, times greater than either of the racemic mixtures ([2]; intravenous): ≥ 3 times
- EC50 [3]: 38.8 nM
- Ki [4]: 1.77 nM
- Retching or vomiting (emesis) [5]: No retching or vomiting was observed
